Assay results reported in patent US10640556B2, “Anti amphiregulin antibodies, compositions comprising same and uses thereof” (Yeda Research and Development Co. Ltd., priority 2015, dated 2020).

Experiments:
[1] = target: T1, EGFR (Homo sapiens, UniProt P00533); test: Ligand-induced receptor ubiquitination assay (MCAS, MLS, H358, A549 cells); format: cell-based; set-up: endogenous in cells; host or cells: MCAS, MLS, H358, A549; settings: 10 minutes
Method: (§1) The cells were later washed and lysed, and the associated radioactivity was determined. […] The cells were later washed and lysed in 1 N NaOH. Cell-associated radioactivity was determined. […] Washed immunocomplexes, along with whole extracts, were immunoblotted with the indicated antibodies.
For determination of ligand-induced receptor ubiquitination, cells were extracted in lysis buffer (50 mM HEPES pH 7.5, 150 mM NaCl, 10% glycerol, 1% Triton X-100, 1 mM EDTA, 1 mM EGTA, 10 mM NaF and 30 mM 3-glycerol phosphate) with freshly added 0.2 mM Na3VO4, a protease inhibitor cocktail and 2 mM N-ethylmaleimide (NEM). Twenty μL of protein G agarose beads and 1 μg of antibody were added to 500 μg of protein lysate. After a 2 hour incubation at 4° C., the immunoprecipitates were collected by centrifugation at 14,000 rpm at 4° C. for 1 minute. The supernatant was discarded and the pellet was washed thrice, prior to electrophoresis.

[2] = target: T1, EGFR; test: Ligand displacement of radiolabeled EGF on MCAS cells; format: binding; set-up: endogenous in cells; host or cells: MCAS, MLS, H358, A549; settings: displacement of 125I-EGF (50 ng/mL), 3 hours on ice
Method: FIGS. 2A-2F illustrate that AREG is a low affinity ligand that induces limited receptor downregulation, as well as weak ubiquitination and degradation of EGFR. […] The cells were later washed and lysed, and the associated radioactivity was determined. The extent of ligand displacement (mean±range of triplicates) was plotted with respect to binding in the absence of an unlabeled ligand; FIG. 2B is a graph showing results of MCAS ovarian cells incubated in a 12 well plate and starved overnight for serum factors. […] The cells were later washed and lysed in 1 N NaOH. Cell-associated radioactivity was determined. […] Washed immunocomplexes, along with whole extracts, were immunoblotted with the indicated antibodies.
For ligand displacement assays, cells were grown in 12-well plates and serum-starved for 12-15 hours. […] The cells were later washed, lysed and their radioactivity counted.

[3] = target: T1, EGFR; test: Receptor downregulation assay in MCF10A cells; format: cell-based; set-up: endogenous in cells; settings: AREG 1 ng/mL or 100 ng/mL
Method: FIGS. 2G-2H illustrate that AREG is a low affinity ligand able to induce only limited receptor downregulation in normal epithelial cells. FIG. 2G is a graph illustrating results of the immortalized human mammary cell line MCF10A used for ligand displacement assays. […] The cells were later washed and lysed, and the associated radioactivity was determined. The extent of ligand displacement (mean±range of triplicates) is depicted; and FIG. 2H is a graph illustrating results of MCF10A cells grown in 12 well plates and starved overnight for serum factors. […] The cells were later washed, lysed in 1N NaOH and their radioactivity was determined. Averages of triplicates and S.D. values (bars) are presented.
(§2) At the end of the incubation period, the cells were placed on ice, washed with ice cold medium and subjected to mild acid wash (0.2 M Na-acetate buffer, pH 4.5, and 0.5 M NaCl) for 2 minutes, followed by 2 washes in ice cold medium. […] Finally, cells were lysed in 1 N NaOH, and their radioactivity was determined.

[4] = target: T1, EGFR; test: Receptor downregulation assay in MCAS cells; format: cell-based; set-up: endogenous in cells; host or cells: MCAS, MLS, H358, A549; settings: ligand 50 ng/ml
Method: as §1, §2

[5] = test system: feedback regulatory components of the EGFR signaling pathways; test: qPCR of feedback regulators of EGFR signaling in MCF10A cells; format: cell-based, human
Method: FIGS. 3A-3F illustrate that amphiregulin acts as a weak inducer of transcription-mediated feedback regulatory loops of EGFR signaling. […] Shown are mRNA profiles representative of two independent biological repeats.
Total RNA was extracted using the PerfectPure RNA Cultured Cell Kit (5-prime) according to the manufacturer's instructions. Total RNA quantity and quality were determined using the NanoDrop® ND-1000 Spectrophotometer. Complementary DNA was synthesized using the High Capacity Reverse Transcription kit (Applied Biosystems, Life Technologies). Primers for the positive (EREG, TGF-alpha and HB-EGF), negative regulators (MIG6/RALT, DUSP1 and DUSP6) and beta2-microglobulin (B2M) were as previously described (Lauriola M et al., (2014) Nat Commun. 5: 5073). The KiCqStart primers from Sigma-Aldrich were used to detect the levels of human AREG (H_AREG_3). Real-time qPCR analysis was performed with SYBR Green (Applied Biosystems) and specific primers on the StepOne Plus Real-Time PCR system (Applied Biosystems). qPCR signals (cT) were normalized to B2M.

[6] = test system: MLS ovarian cancer cells; test: MLS ovarian tumor xenograft in nude mice; format: in vivo; settings: MLS tumors, AR30 100 μg/mouse twice a week, cisplatin 5 mg/kg, FIG. 7B
Method: FIG. 7A, female nude mice (6 weeks old) were inoculated subcutaneously with MLS ovarian cancer cells (2×10^6 per animal). Once tumors became palpable, mice were randomized into two groups. Eleven mice were injected intraperitoneally with an anti-AREG mAb (AR30; 200 μg/mouse; twice a week, on days: 8, 11, 14, 17, and 21). The control group also included 11 mice. Shown are means±S.D. values; FIG. 7B, female nude mice (6 weeks old) were inoculated subcutaneously with MLS ovarian cancer cells (2×10^6 per animal). Once tumors became palpable, mice were randomized into four groups. One group (8 mice) was injected intraperitoneally with the AR30 mAb (100 μg/mouse twice a week, on days: 8, 14, 17, 21, 24 and 28). Another group (8 mice) was treated with cisplatin (5 mg/kg; on days 8 and 21). The fourth group was treated with a combination of mAb AR30 and cisplatin. The control group included 12 mice; and FIG. 7C, the indicated MLS tumors were excised, and their average weights determined. Representative tumors were photographed.
All animal procedures were approved by the Weizmann Institute of Science's review board. Female athymic NCr-nude mice (6 weeks old) were inoculated subcutaneously with 2×10^6 human ovarian MLS cancer cells. Once tumors became palpable (5-7 days), the mice were randomized into groups and injected intraperitoneally at the indicated time points with the indicated monoclonal antibodies, chemotherapy or the combination. Tumor volumes were monitored twice a week, and body weights were measured once a week.

[7] = test system: MLS ovarian cancer cells and A549 lung cancer cells; test: ELISA of ligand secretion by MLS and A549 cells; format: cell-based, human; settings: ovarian (MLS) and lung (A549) cancer cells exposed to cisplatin
Method: (§3) FIGS. 5C-5F illustrate that AREG, unlike HB-EGF and TGF-alpha, undergoes up-regulation in response to a chemotherapeutic agent. FIG. 5C is a graph illustrating results of MLS cells transfected with a luciferase reporter containing the promoter region of TGF-alpha. The luciferase activity derived from the Renilla luciferase was normalized to that derived from the firefly luciferase (co-transfection control). Twenty-four hours after transfection, increasing concentrations of cisplatin were added, and 24 hours later the cells were subjected to luciferase assays; FIG. 5D is a graph illustrating assessment of GAPDH promoter activity as described in FIG. 5C; FIG. 5E is a graph illustrating the results of MLS ovarian cancer cells exposed to increasing concentrations of cisplatin. Cells were assessed for the secretion of the indicated ligands using ELISA; and FIG. 5F is a graph illustrating assessment of the A549 lung cancer cell line analyzed as in FIG. 5E. Human cancer cell lines were seeded in 10 cm plates, covered with medium (6 mL) and incubated for 4 days. The supernatants were collected and centrifuged at 1200 rpm for 5 minutes.

[8] = test system: promoter region of AREG; test: AREG promoter luciferase reporter in MLS cells; format: cell-based, human; settings: MLS ovarian cells, increasing concentrations of cisplatin, 48 hours
Method: (§4) FIGS. 5A-5B illustrate transcriptional activation of the AREG promoter by cisplatin. FIG. 5A is a graph illustrating the results of MLS cells transfected with a luciferase reporter containing the promoter region of AREG. Luciferase activity derived from the Renilla luciferase, was determined and normalized to that derived from the firefly luciferase reporter. Twenty-four hours after transfection, increasing concentrations of cisplatin were added and 48 hours later the cells were subjected to luciferase assay; and FIG. 5B illustrates the results of A549 lung cancer cells treated as in FIG. 5A. Averages of triplicates and S.D. values (bars) are presented (*P<0.03, **P<0.01, t-test). For promoter reporter assays, MLS and A549 cells were co-transfected with a Renilla luciferase plasmid containing the promoter region of AREG, TGF-alpha, a positive control of promoter activity, namely GAPDH, or a random control vector R01 used as a negative control (SwitchGear Genomics). Additionally, the pGL3-Control vector containing Firefly luciferase (Promega) was transfected as a control for transfection efficiency. Promoter activity was determined using the dual-luciferase reporter assay system according to the manufacturer's instructions (Promega). Renilla luciferase luminescence values were normalized to Firefly luminescence and quantified relative to control.

[9] = test system: Caspase-3; test: Caspase-3 cleavage immunoblot in OVCAR5 cells; format: cell-based, human; settings: cisplatin 5 μg/mL overnight as positive control
Method: FIGS. 4A-4D illustrate that depletion of AREG expression inhibits tumorigenic growth of human ovarian cancer cells. FIG. 4A is a graph illustrating results of OVCAR5 ovarian cancer cells treated with lentiviral expression constructs, either a scrambled shRNA or an AREG-specific shRNA. Conditioned media were collected three days later and the levels of secreted AREG were assessed using ELISA; FIG. 4B is a graph illustrating the growth rates of shAREG or shControl OVCAR5 cells measured using the MTT assay. Shown are means±S.D. values of hexaplicates (*P<0.005, t-test); FIG. 4C is a photograph illustrating Caspase-3 cleavage as assessed using immunoblotting and OVCAR5 sub-lines stably expressing three different shAREGs, or shControl. The assay was performed either in full medium or under serum starvation. Overnight treatment with cisplatin (5 μg/mL) was used as a positive control. […] Female nude mice (6 weeks old; 10 per group) were inoculated subcutaneously with OVCAR5 ovarian cells (3×10^6 per animal) pre-treated with either a scrambled shRNA or the AREG-specific shRNA. Tumor volumes were measured as indicated. Data points are presented as mean volume±S.D. values (*P<0.005, t-test).

[10] = test system: promoter region of TGF-alpha; test: TGF-alpha promoter luciferase reporter in MLS cells; format: cell-based, human; settings: increasing concentrations of cisplatin, 24 hours
Method: as §3, with “[…] Promoter activity was determined using the dual-luciferase reporter assay system according to the manufacturer's instructions (Promega). Renilla luciferase luminescence values” for “Human cancer cell lines”, “normalized to Firefly luminescence” for “seeded in 10 cm plates, covered with medium (6 mL)”, “quantified relative to control.” for “incubated for 4 days. The supernatants were collected and centrifuged at 1200 rpm for 5 minutes.”

[11] = test system: promoter region of AREG; test: AREG promoter luciferase reporter in A549 cells; format: cell-based, human; settings: A549 lung cells, increasing concentrations of cisplatin, 48 hours
Method: as §4

AREG: amphiregulin, low-affinity EGF-family ligand of EGFR
ubiquitination of EGFR ([1]; ligand 100 ng/mL, MCAS, MLS, H358, A549 cells): failed to do so
ubiquitination of EGFR ([1]; ten-fold higher concentration (1 μg/mL)): comparable levels of receptor ubiquitination as EGF and TGF-alpha
lower binding affinity compared to EGF [2]: approximately 100 fold
EGFR downregulation [3]: effective downregulation of EGFR was observed only when testing very high concentrations
EGFR downregulation [4]: approximately 30%
induction of feedback regulator transcripts (qPCR) ([5]; ligand 10 ng/ml): hardly detectable signals
induction of feedback regulator transcripts (qPCR) ([5]; ligand 100 ng/ml): clear, time dependent transcription of the six tested genes

N.N.[Cl][Pt][Cl] [cisplatin]
tumor growth [6]: only mildly inhibited
secretion of EGF-family ligands to the medium [7]: increased secretion of AREG, not EGF, TGF-alpha or HB-EGF
increase in AREG promoter reporter activity [8]: 2 fold
Caspase-3 cleavage [9]: cleaved only in cells incubated for 12 hours in the presence of cisplatin
TGF-alpha promoter reporter activity [10]: no consistent, cisplatin-induced changes in TGF-alpha induction
increase in AREG promoter reporter activity [11]: 1.5 fold
